Assay results as given in US20240358707A1, “INHIBITORS OF BRUTON'S TYROSINE KINASE” (Pharmacyclics LLC, priority 2006, published 2024).

Key:
[1] = molecular target: Btk (Homo sapiens (Human), UniProt Q06187); assay: Btk acellular kinase assay (TR-FRET); format: biochemical; details: relative to compound 4
[2] = tested on: BCR-activated calcium flux in Ramos cells; assay: BCR-induced calcium flux assay in Ramos cells; details: Homo sapiens, read-out: Ramos Cell Ca Flux IC50
[3] = tested on: DHL-6 cells; assay: DHL-6 cell growth (Alamar Blue assay); format: cell-based

Sequence of Btk (Q06187 whole entry): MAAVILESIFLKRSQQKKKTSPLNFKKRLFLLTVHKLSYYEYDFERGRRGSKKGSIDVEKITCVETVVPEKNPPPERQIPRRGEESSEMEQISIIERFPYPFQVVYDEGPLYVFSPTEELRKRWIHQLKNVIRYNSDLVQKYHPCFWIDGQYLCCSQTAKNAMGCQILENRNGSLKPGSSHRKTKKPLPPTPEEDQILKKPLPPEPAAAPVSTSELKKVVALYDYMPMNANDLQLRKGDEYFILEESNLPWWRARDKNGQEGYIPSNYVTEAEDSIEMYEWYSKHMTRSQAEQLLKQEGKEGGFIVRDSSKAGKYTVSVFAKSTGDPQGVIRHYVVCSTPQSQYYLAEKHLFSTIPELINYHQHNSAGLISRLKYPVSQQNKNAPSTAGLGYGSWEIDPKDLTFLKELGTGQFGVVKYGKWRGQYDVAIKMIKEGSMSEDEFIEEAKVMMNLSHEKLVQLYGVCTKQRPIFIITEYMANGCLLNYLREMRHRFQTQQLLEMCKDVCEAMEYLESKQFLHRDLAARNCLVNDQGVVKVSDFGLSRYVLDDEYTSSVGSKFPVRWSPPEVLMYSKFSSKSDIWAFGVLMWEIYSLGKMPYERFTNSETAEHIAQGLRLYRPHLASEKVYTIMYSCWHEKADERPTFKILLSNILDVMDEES

| IC50 [2] [nM] | Structure (SMILES) | other results |
| --- | --- | --- |
| 89 | C/C=C/C(=O)N1CCCC(n2nc(-c3ccc(Oc4ccccc4)cc3)c3c(N)ncnc32)C1 (stereo not drawn) [Compound 5, (E)-1-(3-(4-amino-3-(4-phenoxyphenyl)-1H-pyrazolo[3,4-d]pyrimidin-1-yl)piperidin-1-yl)but-2-en-1-one] | Fold less potent than compound 4 (Btk) [1]: 28 fold |
| 92 | C=CS(=O)(=O)N1CCCC(n2nc(-c3ccc(Oc4ccccc4)cc3)c3c(N)ncnc32)C1 (stereo not drawn) [Compound 6, 1-(3-(4-amino-3-(4-phenoxyphenyl)-1H-pyrazolo[3,4-d]pyrimidin-1-yl)piperidin-1-yl)sulfonylethene] |  |
| 9 | Nc1ncnc2c1c(-c1ccc(Oc3ccccc3)cc1)nn2C1CCCN(C(=O)CCl)C1 (stereo not drawn) [Compound 7] |  |
| 9 | C#CC(=O)N1CCCC(n2nc(-c3ccc(Oc4ccccc4)cc3)c3c(N)ncnc32)C1 (stereo not drawn) [Compound 8, 1-(3-(4-amino-3-(4-phenoxyphenyl)-1H-pyrazolo[3,4-d]pyrimidin-1-yl)piperidin-1-yl)prop-2-yn-1-one] |  |
| 48 | C=CC(=O)N1CCC(n2nc(-c3ccc(Oc4ccccc4)cc3)c3c(N)ncnc32)CC1 [Compound 9, 1-(4-(4-amino-3-(4-phenoxyphenyl)-1H-pyrazolo[3,4-d]pyrimidin-1-yl)piperidin-1-yl)prop-2-en-1-one] |  |
| 3 | C=CC(=O)N[C@H]1CC[C@@H](n2nc(-c3ccc(Oc4ccccc4)cc3)c3c(N)ncnc32)CC1 [Compound 10, N-((1s,4s)-4-(4-amino-3-(4-phenoxyphenyl)-1H-pyrazolo[3,4-d]pyrimidin-1-yl)cyclohexyl)acrylamide] |  |
| 24 | C=CC(=O)N1CC[C@@H](n2nc(-c3ccc(Oc4ccccc4)cc3)c3c(N)ncnc32)C1 [Compound 11, 1-((R)-3-(4-amino-3-(4-phenoxyphenyl)-1H-pyrazolo[3,4-d]pyrimidin-1-yl)pyrrolidin-1-yl)prop-2-en-1-one] |  |
| 90 | C=CC(=O)N1CC[C@H](n2nc(-c3ccc(Oc4ccccc4)cc3)c3c(N)ncnc32)C1 [Compound 12, 1-((S)-3-(4-amino-3-(4-phenoxyphenyl)-1H-pyrazolo[3,4-d]pyrimidin-1-yl)pyrrolidin-1-yl)prop-2-en-1-one] |  |
| 36 | CN(C)C/C=C/C(=O)N1CCC[C@@H](n2nc(-c3ccc(Oc4ccccc4)cc3)c3c(N)ncnc32)C1 [Compound 15, (E)-1-(3-(4-amino-3-(4-phenoxyphenyl)-1H-pyrazolo[3,4-d]pyrimidin-1-yl)piperidin-1-yl)-4-(dimethylamino)but-2-en-1-one] | Growth of DHL-6 cells ([3]; 24 h treatment): inhibits growth; Growth of DHL-6 cells ([3]; 48 h treatment): inhibits growth |
